Where a name gives a salt, the structure may show the parent alone.
What was measured:
[1] = manufacturers specified guideline; cited from earlier work
[2] = Excitation and fluorescence wavelengths and signal attenuation versus tissue depth of fluorescing dyes (FIG. 2); format: physicochemical
Description: These fluorescing dyes are excited by one wavelength of electromagnetic radiation, and emit a detectable signal at a second wavelength. Looking to FIG. 2, the excitation signal for fluorescein dye is represented at curve 30 which is an excitation signal at less than about 500 nanometers (nm). A resultant fluorescence emission from the excitation at 30 is shown at curve 32, at a wavelength of about 525 nm.
Looking to the indocyanine green dye spectrum, an excitation curve is shown at 34, having a peak excitation wavelength at about 785 nanometers. Correspondingly, the fluorescence emission from excitation at curve 34 is represented at curve 36 with a peak emission wavelength of about 830 nanometers. Directed across FIG. 2 is a curve representing the level of constant signal attenuation or absorption of about 37% resulting from passage of signal through tissue. That curve is represented at 38. Note that if a blood vessel is about one millimeter beneath the surface of skin the system would perform at about 37% of the original intensity of the excitation signal and fluorescence signal for the case of indocyanine green dye indicator. In contrast, a 37% decrease in excitation and emission signal level would result for the fluorescein dye indicator at a tissue thickness of only 0.25 mm. Since blood vessel being targeted is at least 1 mm below skin surface, the attenuation and associated signal loss would be much larger. Therefore, indocyanine green dye is preferred.
Turning again to the indocyanine green dye spectrum, note that the excitation signal 34 for ICG intersects curve 38 at a depth allowing for readily reaching blood vessels, for example within the pinna of the ear. Accordingly, indocyanine green is compatible with use as a circulatory tracking agent when detecting through skin, and indocyanine green was the indicator elected for subsequent study.

[3] = 1 day
Description: However, due to the ratiometric form of Eq. 7 in the present invention, the terms D and CCF cancel out. Also, the units of measure for the fluorescence signal level (e.g., millivolts-seconds) cancel out. […] However, the amount of the indicator injected needs to be sufficiently large so that the much smaller indicator/dilution curves associated with one or two right-to-left shunts can be adequately resolved and their corresponding areas can be accurately calculated. In a preferred embodiment of the present invention involving the use of Indocyanine Green (ICG) dye (supplied, for example, by Akorn, Inc., 2500 Millbrook Drive, Buffalo Grove, Ill. 60089) as the indicator, the preferred amount of ICG dye injected is 2.0 ml at an ICG dye concentration of 2.5 milligram/ml which is equivalent to an injected ICG dose of 5.0 milligrams. The chemical name for Indocyanine Green is 1H-benz(e)indolium, 2-[7-[1,3-dihydro-1,1-dimethyl-3-(4-sulfobutyl)-2H-benz[e]indo-2-ylidene]-1,3,5-heptatrienyl]-1,1-dimethyl-3-(4-sulfobutyl)-hydroxide, inner salt, sodium, or 2-[7-[1,1-dimethyl-3-(4-sulfobutyl)benz[e]indolin-2-ylidene]-1,3,5-heptatrienyl]-1,1-dimethyl-3-(4-sulfobutyl)-1H-benz[e]indolium hydroxide, inner salt, sodium salt. A typical right-to-left shunt test procedure might involve a total of 3 to 5 tests which represents a total injected dose of 15 to 25 milligrams. […]

Structure (SMILES) | recommended maximum ICG dose per day [1] | excitation wavelength ([2]; FIG. 2) | recommended ICG dose for a human subject [3] | fluorescence emission wavelength ([2]; FIG. 2) | tissue thickness (depth of blood vessel beneath skin) at constant signal attenuation of about 37% ([2]; excitation and fluorescence signal, FIG. 2 curve 38) [mm]
CC1(C)C(/C=C/C=C/C=C/C=C2\N(CCCCS(=O)(=O)O)c3ccc4ccccc4c3C2(C)C)=[N+](CCCCS(=O)(=O)[O-])c2ccc3ccccc3c21 [ICG, 1H-benz(e)indolium, 2-[7-[1,3-dihydro-1,1-dimethyl-3-(4-sulfobutyl)-2H-benz[e]indo-2-ylidene]-1,3,5-heptatrienyl]-1,1-dimethyl-3-(4-sulfobutyl)-hydroxide, inner salt, sodium] | ≤ 2 milligrams per kilogram of body weight | about 785 nanometers | about 127 milligrams |  | 
O=C1OC2(c3ccc(O)cc3Oc3cc(O)ccc32)c2ccccc21 [fluorescein] |  | less than 500 nanometers |  | about 525 nm | 0.25
